From ChEMBL document CHEMBL5634115, “Exploring novel anticancer pyrazole benzenesulfonamides featuring tail approach strategy as carbonic anhydrase inhibitors” (Eur J Med Chem, 2023)

Legend:
Assay in all cases: cells
LOX IMVI = format: functional; details: Homo sapiens, time 48 hrs
Description: Growth inhibition of human LOX IMVI cells measured after 48 hrs by sulforhodamine B assay

ACHN = format: functional; details: Homo sapiens, time 48 hrs
Description: Growth inhibition of human ACHN cells measured after 48 hrs by sulforhodamine B assay

K562 [1] = format: functional; details: Homo sapiens, time 48 hrs
Description: Growth inhibition of human K562 cells measured after 48 hrs by sulforhodamine B assay

SW-620 [2] = details: Homo sapiens, SW-620, 48 h, read-out: LC50
Description: Cytotoxicity activity against human SW620 cells assessed as reduction in cell growth measured after 48 hrs by sulforhodamine B assay

OVCAR-3 [3] = format: functional; details: Homo sapiens, time 48 hrs
Description: Growth inhibition of human OVCAR-3 cells measured after 48 hrs by sulforhodamine B assay

SK-OV-3 = format: functional; details: Homo sapiens, time 48 hrs
Description: Cytostatic activity against human SK-OV-3 cells assessed as total growth inhibition measured after 48 hrs by sulforhodamine B assay

HCT-15 = format: functional; details: Homo sapiens, time 48 hrs
Description: Growth inhibition of human HCT-15 cells measured after 48 hrs by sulforhodamine B assay

HOP-92 [4] = details: Homo sapiens, HOP-92, 48 h, read-out: LC50
Description: Cytotoxicity activity against human HOP-92 cells assessed as reduction in cell growth measured after 48 hrs by sulforhodamine B assay

SNB-19 = details: Homo sapiens, SNB-19, 48 h, read-out: LC50
Description: Cytotoxicity activity against human SNB-19 cells assessed as reduction in cell growth measured after 48 hrs by sulforhodamine B assay

BT-549 = format: functional; details: Homo sapiens, time 48 hrs
Description: Cytostatic activity against human BT-549 cells assessed as total growth inhibition measured after 48 hrs by sulforhodamine B assay

A549 [5] = format: functional; details: Homo sapiens, time 48 hrs
Description: Growth inhibition of human A549 cells measured after 48 hrs by sulforhodamine B assay

MOLT-4 [6] = details: Homo sapiens, MOLT-4, 48 h, read-out: LC50
Description: Cytotoxicity activity against human MOLT-4 cells assessed as reduction in cell growth measured after 48 hrs by sulforhodamine B assay

OVCAR-4 = format: functional; details: Homo sapiens, time 48 hrs
Description: Growth inhibition of human OVCAR-4 cells measured after 48 hrs by sulforhodamine B assay

786-0 [7] = details: Homo sapiens, 786-0, 48 h, read-out: LC50
Description: Cytotoxicity activity against human 786-0 cells assessed as reduction in cell growth measured after 48 hrs by sulforhodamine B assay

786-0 [8] = format: functional; details: Homo sapiens, time 48 hrs
Description: Growth inhibition of human 786-0 cells measured after 48 hrs by sulforhodamine B assay

CCRF-CEM [9] = format: functional; details: Homo sapiens, time 48 hrs
Description: Growth inhibition of human CCRF-CEM cells measured after 48 hrs by sulforhodamine B assay

SNB-75 = format: functional; details: Homo sapiens, time 48 hrs
Description: Cytostatic activity against human SNB-75 cells assessed as total growth inhibition measured after 48 hrs by sulforhodamine B assay

CCRF-CEM [10] = format: functional; details: Homo sapiens, time 48 hrs; remark: listed apart in the source
Description: Cytostatic activity against human CCRF-CEM cells assessed as total growth inhibition measured after 48 hrs by sulforhodamine B assay

MOLT-4 [11] = format: functional; details: Homo sapiens, time 48 hrs
Description: Growth inhibition of human MOLT-4 cells measured after 48 hrs by sulforhodamine B assay

SR = format: functional; details: Homo sapiens, time 48 hrs
Description: Growth inhibition of human SR cells measured after 48 hrs by sulforhodamine B assay

SF-268 = format: functional; details: Homo sapiens, time 48 hrs
Description: Growth inhibition of human SF-268 cells measured after 48 hrs by sulforhodamine B assay

MDA-MB-468 [12] = format: functional; details: Homo sapiens, time 48 hrs
Description: Cytostatic activity against human MDA-MB-468 cells assessed as total growth inhibition measured after 48 hrs by sulforhodamine B assay

HT-29 [13] = format: functional; details: Homo sapiens, time 48 hrs
Description: Growth inhibition of human HT-29 cells measured after 48 hrs by sulforhodamine B assay

A549 [14] = format: functional; details: Homo sapiens, time 48 hrs; remark: listed apart in the source
Description: Cytostatic activity against human A549 cells assessed as total growth inhibition measured after 48 hrs by sulforhodamine B assay

OVCAR-3 [15] = details: Homo sapiens, OVCAR-3, 48 h, read-out: LC50
Description: Cytotoxicity activity against human OVCAR-3 cells assessed as reduction in cell growth measured after 48 hrs by sulforhodamine B assay

OVCAR-8 [16] = format: functional; details: Homo sapiens, time 48 hrs
Description: Growth inhibition of human OVCAR-8 cells measured after 48 hrs by sulforhodamine B assay

DU-145 = format: functional; details: Homo sapiens, time 48 hrs
Description: Cytostatic activity against human DU-145 cells assessed as total growth inhibition measured after 48 hrs by sulforhodamine B assay

MDA-MB-468 [17] = format: functional; details: Homo sapiens, time 48 hrs; remark: listed apart in the source
Description: Growth inhibition of human MDA-MB-468 cells measured after 48 hrs by sulforhodamine B assay

HOP-92 [18] = format: functional; details: Homo sapiens, time 48 hrs
Description: Cytostatic activity against human HOP-92 cells assessed as total growth inhibition measured after 48 hrs by sulforhodamine B assay

PC-3 [19] = format: functional; details: Homo sapiens, time 48 hrs
Description: Growth inhibition of human PC-3 cells measured after 48 hrs by sulforhodamine B assay

NCI-H23 [20] = format: functional; details: Homo sapiens, time 48 hrs
Description: Cytostatic activity against human NCI-H23 cells assessed as total growth inhibition measured after 48 hrs by sulforhodamine B assay

NCI-H522 [21] = format: functional; details: Homo sapiens, time 48 hrs
Description: Cytostatic activity against human NCI-H522 cells assessed as total growth inhibition measured after 48 hrs by sulforhodamine B assay

A498 = details: Homo sapiens, A498, 48 h, read-out: LC50
Description: Cytotoxicity activity against human A498 cells assessed as reduction in cell growth measured after 48 hrs by sulforhodamine B assay

SW-620 [22] = format: functional; details: Homo sapiens, time 48 hrs
Description: Growth inhibition of human SW620 cells measured after 48 hrs by sulforhodamine B assay

COLO 205 [23] = format: functional; details: Homo sapiens, time 48 hrs
Description: Cytostatic activity against human COLO 205 cells assessed as total growth inhibition measured after 48 hrs by sulforhodamine B assay

SK-MEL-5 = details: Homo sapiens, SK-MEL-5, 48 h, read-out: LC50
Description: Cytotoxicity activity against human SK-MEL-5 cells assessed as reduction in cell growth measured after 48 hrs by sulforhodamine B assay

MCF7 = format: functional; details: Homo sapiens, time 48 hrs
Description: Cytostatic activity against human MCF7 cells assessed as total growth inhibition measured after 48 hrs by sulforhodamine B assay

HT-29 [24] = format: functional; details: Homo sapiens, time 48 hrs; remark: listed apart in the source
Description: Cytostatic activity against human HT-29 cells assessed as total growth inhibition measured after 48 hrs by sulforhodamine B assay

U-251 = format: functional; details: Homo sapiens, time 48 hrs
Description: Growth inhibition of human U-251 cells measured after 48 hrs by sulforhodamine B assay

IGROV-1 [25] = format: functional; details: Homo sapiens, time 48 hrs
Description: Growth inhibition of human IGROV-1 cells measured after 48 hrs by sulforhodamine B assay

KM12 [26] = format: functional; details: Homo sapiens, time 48 hrs
Description: Growth inhibition of human KM12 cells measured after 48 hrs by sulforhodamine B assay

SK-MEL-28 = details: Homo sapiens, SK-MEL-28, 48 h, read-out: LC50
Description: Cytotoxicity activity against human SK-MEL-28 cells assessed as reduction in cell growth measured after 48 hrs by sulforhodamine B assay

KM12 [27] = details: Homo sapiens, KM12, 48 h, read-out: LC50
Description: Cytotoxicity activity against human KM12 cells assessed as reduction in cell growth measured after 48 hrs by sulforhodamine B assay

HCT-116 = format: functional; details: Homo sapiens, time 48 hrs
Description: Cytostatic activity against human HCT-116 cells assessed as total growth inhibition measured after 48 hrs by sulforhodamine B assay

OVCAR-8 [28] = format: functional; details: Homo sapiens, time 48 hrs; remark: listed apart in the source
Description: Cytostatic activity against human OVCAR-8 cells assessed as total growth inhibition measured after 48 hrs by sulforhodamine B assay

NCI-H23 [29] = format: functional; details: Homo sapiens, time 48 hrs; remark: listed apart in the source
Description: Growth inhibition of human NCI-H23 cells measured after 48 hrs by sulforhodamine B assay

COLO 205 [30] = details: Homo sapiens, COLO 205, 48 h, read-out: LC50
Description: Cytotoxicity activity against human COLO 205 cells assessed as reduction in cell growth measured after 48 hrs by sulforhodamine B assay

HL-60(TB) = details: Homo sapiens, HL-60, 48 h, read-out: LC50
Description: Cytotoxicity activity against human HL-60(TB) cells assessed as reduction in cell growth measured after 48 hrs by sulforhodamine B assay

Malme-3M = format: functional; details: Homo sapiens, time 48 hrs
Description: Cytostatic activity against human Malme-3M cells assessed as total growth inhibition measured after 48 hrs by sulforhodamine B assay

NCI-H322M = format: functional; details: Homo sapiens, time 48 hrs
Description: Growth inhibition of human NCI-H322M cells measured after 48 hrs by sulforhodamine B assay

RXF 393 = format: functional; details: Homo sapiens, time 48 hrs
Description: Cytostatic activity against human RXF 393 cells assessed as total growth inhibition measured after 48 hrs by sulforhodamine B assay

MOLT-4 [31] = format: functional; details: Homo sapiens, time 48 hrs; remark: listed apart in the source
Description: Cytostatic activity against human MOLT-4 cells assessed as total growth inhibition measured after 48 hrs by sulforhodamine B assay

HCC 2998 = format: functional; details: Homo sapiens, time 48 hrs
Description: Cytostatic activity against human HCC 2998 cells assessed as total growth inhibition measured after 48 hrs by sulforhodamine B assay

HOP-62 [32] = details: Homo sapiens, HOP-62, 48 h, read-out: LC50
Description: Cytotoxicity activity against human HOP-62 cells assessed as reduction in cell growth measured after 48 hrs by sulforhodamine B assay

UACC-257 = format: functional; details: Homo sapiens, time 48 hrs
Description: Growth inhibition of human UACC-257 cells measured after 48 hrs by sulforhodamine B assay

SK-MEL-2 [33] = details: Homo sapiens, SK-MEL-2, 48 h, read-out: LC50
Description: Cytotoxicity activity against human SK-MEL-2 cells assessed as reduction in cell growth measured after 48 hrs by sulforhodamine B assay

NCI-H522 [34] = details: Homo sapiens, NCI-H522, 48 h, read-out: LC50
Description: Cytotoxicity activity against human NCI-H522 cells assessed as reduction in cell growth measured after 48 hrs by sulforhodamine B assay

HOP-62 [35] = format: functional; details: Homo sapiens, time 48 hrs
Description: Cytostatic activity against human HOP-62 cells assessed as total growth inhibition measured after 48 hrs by sulforhodamine B assay

SK-MEL-2 [36] = format: functional; details: Homo sapiens, time 48 hrs
Description: Cytostatic activity against human SK-MEL-2 cells assessed as total growth inhibition measured after 48 hrs by sulforhodamine B assay

IGROV-1 [37] = format: functional; details: Homo sapiens, time 48 hrs; remark: listed apart in the source
Description: Cytostatic activity against human IGROV-1 cells assessed as total growth inhibition measured after 48 hrs by sulforhodamine B assay

OVCAR-3 [38] = format: functional; details: Homo sapiens, time 48 hrs; remark: listed apart in the source
Description: Cytostatic activity against human OVCAR-3 cells assessed as total growth inhibition measured after 48 hrs by sulforhodamine B assay

PC-3 [39] = format: functional; details: Homo sapiens, time 48 hrs; remark: listed apart in the source
Description: Cytostatic activity against human PC-3 cells assessed as total growth inhibition measured after 48 hrs by sulforhodamine B assay

K562 [40] = details: Homo sapiens, K562, 48 h, read-out: LC50
Description: Cytotoxicity activity against human K562 cells assessed as reduction in cell growth measured after 48 hrs by sulforhodamine B assay

CCOC(=O)c1ccc(N/N=C/c2cn(-c3ccc(S(N)(=O)=O)cc3)nc2-c2ccc(C)cc2)cc1
GI50 (LOX IMVI): 1710 nM
GI50 (ACHN): 3.04 µM
GI50 (K562 [1]): 2880 nM
CC50 (SW-620 [2]): > 100 µM
GI50 (OVCAR-3 [3]): 2570 nM
TGI (SK-OV-3): > 100 µM
GI50 (HCT-15): 1870 nM
CC50 (HOP-92 [4]): > 100 µM
CC50 (SNB-19): > 100 µM
TGI (BT-549): 40.6 µM
GI50 (A549 [5]): 4.07 µM
CC50 (MOLT-4 [6]): > 100 µM
GI50 (OVCAR-4): 7.08 µM
CC50 (786-0 [7]): 68 µM
GI50 (786-0 [8]): 2420 nM
GI50 (CCRF-CEM [9]): 3.82 µM
TGI (SNB-75): 46.4 µM
TGI (CCRF-CEM [10]): 57.4 µM
GI50 (MOLT-4 [11]): 2870 nM
GI50 (SR): 2650 nM
GI50 (SF-268): 4.07 µM
TGI (MDA-MB-468 [12]): 16 µM
GI50 (HT-29 [13]): 2970 nM
TGI (A549 [14]): 4.07 µM
CC50 (OVCAR-3 [15]): 62.6 µM
GI50 (OVCAR-8 [16]): 5.68 µM
TGI (DU-145): 24.4 µM
GI50 (MDA-MB-468 [17]): 3.51 µM
TGI (HOP-92 [18]): 2790 nM
GI50 (PC-3 [19]): 3.13 µM
TGI (NCI-H23 [20]): 3.26 µM
TGI (NCI-H522 [21]): 2070 nM
CC50 (A498): > 100 µM
GI50 (SW-620 [22]): 3.66 µM
TGI (COLO 205 [23]): 44.3 µM
CC50 (SK-MEL-5): 40.2 µM
TGI (MCF7): 7.77 µM
TGI (HT-29 [24]): 8.38 µM
GI50 (U-251): 4.23 µM
GI50 (IGROV-1 [25]): 5.13 µM
GI50 (KM12 [26]): 2100 nM
CC50 (SK-MEL-28): 65.8 µM
CC50 (KM12 [27]): 10.6 µM
TGI (HCT-116): 10.6 µM
TGI (OVCAR-8 [28]): > 100 µM
GI50 (NCI-H23 [29]): 3.26 µM
CC50 (COLO 205 [30]): > 100 µM
CC50 (HL-60(TB)): > 100 µM
TGI (Malme-3M): 23.4 µM
GI50 (NCI-H322M): 5.38 µM
TGI (RXF 393): 4.19 µM
TGI (MOLT-4 [31]): 11.5 µM
TGI (HCC 2998): 4.23 µM
CC50 (HOP-62 [32]): > 100 µM
GI50 (UACC-257): 13.2 µM
CC50 (SK-MEL-2 [33]): > 100 µM
CC50 (NCI-H522 [34]): > 100 µM
TGI (HOP-62 [35]): 6.55 µM
TGI (SK-MEL-2 [36]): 40.6 µM
TGI (IGROV-1 [37]): 25.9 µM
TGI (OVCAR-3 [38]): 7.27 µM
TGI (PC-3 [39]): 38.1 µM
CC50 (K562 [40]): > 100 µM
